2 compounds from US9040663B2, “Melanocortin receptor-specific peptides” (AstraZeneca AB, priority 2009, dated 2015) can be followed below.

Where two headings read alike, the source gives them in different places.

For one data set, the target named is MC1-R. Kind of data set: Competitive inhibition binding assay using [I125]-NDP-α-MSH, MC1-R. The settings on record: membranes of B-16 mouse melanoma cells (endogenous MC1-R), in some instances HEK-293 hMC1-R. The method, boiled down:
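Radioligand displacement on membranes from B-16 mouse melanoma cells (endogenous MC1-R) or HEK-293 expressing recombinant hMC1-R, with 0.1 nM [I125]-NDP-α-MSH and increasing peptide concentrations in HEPES pH 7.5 buffer, 60 min at 37° C.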

Data set [1] can be described thus: Food intake and body weight change. The format is in vivo, Sprague-Dawley rats. The settings on record: male rats, 1.0 mg/kg s.c., mean ± SEM; for BW change 0-24 h: body weight; for FI 0-4 h / FI 0-24 h: food intake. As for the experimental part:
7.4 Food Intake and Body Weight Change.
Change in food intake and body weight was evaluated for selected peptides administered by subcutaneous injection route. Male Sprague-Dawley rats were obtained from Hilltop Lab Animals, Inc. (Scottdale, Pa.). Animals were individually housed in conventional polystyrene hanging cages and maintained on a controlled 12 hour on/off light cycle. Water and pelleted food (ProLab RMH 2500, W.F. Fisher & Son Inc.) was provided ad libitum. The rats were dosed subcutaneously with vehicle (3.2% mannitol/50 mM Tris buffer) or selected peptides (1.0 mg/kg). The changes in food intake for the 4 and 24 hour periods after dosing and the changes in body weight for the 24 hour period after dosing were determined. The changes in body weight and food intake for the 48 hour and 72 hour periods after dosing was also measured to determine reversal of changes in body weight and food intake effects back to baseline levels (not shown).

Data set [2] deals with T1, hMC4-R (Homo sapiens (Human), UniProt P32245). Kind of data set: Competitive inhibition binding assay using [I125]-NDP-α-MSH, hMC4-R. The note with it: membranes of HEK-293 cells expressing recombinant hMC4-R, read-out: MC4-R Ki.
A short description of data set [3]: Induction of penile erection. The settings on record: male rats; for Total number of PE/rat 0-1 h: mean ± SEM; for % Responders: rats showing at least one erection.
Experimental: 7.5 Induction of Penile Erection.
(§1) The ability of peptides of the present invention to induce penile erection (PE) in male rats was evaluated with selected peptides. Male Sprague-Dawley rats weighing 250-300 g were kept on a 12 hour on/off light cycle with food and water ad libitum. All behavioral studies were performed between 9 a.m. and 4 p.m.
(§2) Corresponding vehicle controls (3.2% mannitol/50 mM Tris buffer) were run in parallel.
In data set [4] the target is T1, hMC4-R. Kind of data set: High and low density hMC4-R functional assay (cAMP, HEK293-T-REx-MC4-R cells). The note with it: for Emax: NDP-α-MSH = 100%, read-out: Intrinsic Activity (%). The format is cell-based.
For data set [5] the following is noted: in vivo, sc.
Experimental: 7.5 Induction of Penile Erection.
as §1, §2
[6] abbreviates: 0.1 ng/mL Doxycycline (low density hMC4-R system).
[7] abbreviates: 10 ng/mL Doxycycline (high density hMC4-R system).

T1 sequence (P32245 whole entry): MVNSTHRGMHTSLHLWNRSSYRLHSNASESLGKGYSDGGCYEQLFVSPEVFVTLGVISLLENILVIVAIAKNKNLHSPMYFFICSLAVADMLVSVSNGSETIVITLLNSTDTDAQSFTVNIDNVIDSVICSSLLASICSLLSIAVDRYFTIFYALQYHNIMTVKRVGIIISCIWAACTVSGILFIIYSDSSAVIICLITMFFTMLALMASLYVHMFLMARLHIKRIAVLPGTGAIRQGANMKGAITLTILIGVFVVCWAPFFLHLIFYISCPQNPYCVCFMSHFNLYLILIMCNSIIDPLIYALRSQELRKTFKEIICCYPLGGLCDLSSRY

At MC1-R, `CC(=O)N[C@@H](CCCNC(=N)N)C(=O)N[C@H]1CCC(=O)NCCC[C@@H](C(N)=O)NC(=O)[C@H](Cc2c[nH]c3ccccc23)NC(=O)[C@H](CCCNC(=N)N)NC(=O)[C@@H](Cc2ccc(C#N)cc2)NC(=O)[C@H](CC(N)=O)NC1=O` [Example 43, Ac-Arg-cyclo(Glu-Asn-D-Phe(4-CN)-Arg-Trp-Orn)-NH2] returned a Ki of 870 nM. Further, in data set [1], the “BW change 0-24 h” value came to 0.45 ± 0.35 g, the “FI 0-4 h” value was 6.85 ± 0.55 g and the “FI 0-24 h” value is 24.44 ± 0.85 g. Moreover, the Ki at hMC4-R [2] was determined as 5 nM. In addition, in data set [3] (1.0 mg/kg s.c.), the “Total number of PE/rat 0-1 h” value turned out to be 1.7 ± 0.36 and the “% Responders” value is reported as 29%. In data set [3] (3.0 mg/kg s.c.), the “Total number of PE/rat 0-1 h” value amounted to 6.0 ± 0.76 and the “% Responders” value is 100%. In addition, at hMC4-R [4] (setting [6]), the response was half-maximal at 1 nM (EC50) and the Emax came out at 43%. On hMC4-R [4] (setting [7]), the Emax is 100%.

As for `CC(=O)N[C@@H](CCCNC(=N)N)C(=O)N[C@H]1CCC(=O)NCCC[C@@H](C(N)=O)NC(=O)[C@H](Cc2c[nH]c3ccccc23)NC(=O)[C@H](CCCNC(=N)N)NC(=O)[C@@H](Cc2ccc(C#N)cc2)NC(=O)[C@H](CCC(N)=O)NC1=O` [Example 46, Ac-Arg-cyclo(Glu-Gln-D-Phe(4-CN)-Arg-Trp-Orn)-NH2], the figures for the “Total number of PE/rat 0-1 h” value in data set [5] (1 mg/kg) and in data set [5] (3 mg/kg) were 4.9 ± 1.1 and 4.4 ± 1.1, respectively. The “BW change 0-24 h” value in data set [1] is -0.29 ± 0.55 g. Further, the “FI 0-4 h” value in data set [1] worked out at 3.71 ± 0.68 g. Besides, the “FI 0-24 h” value in data set [1] came out at 20.56 ± 1.14 g. Besides, the Ki at hMC4-R [2] amounted to 4 nM. In addition, the “% Responders” value in data set [3] (1.0 mg/kg s.c.) worked out at 100%; in data set [3] (3.0 mg/kg s.c.), 86%. Also, the Emax came out at 40% on hMC4-R [4] (setting [6]) and 97% on hMC4-R [4] (setting [7]).
